Broadly, the EC50 is the concentration needed to bring the measured effect to its halfway point.

Consider 53 compounds from article PMC6433232, “Targeting mitochondria in cancer therapy could provide a basis for the selective anti-cancer activity” (PLoS ONE, 2019).

Where two headings read alike, the source gives them in different places.

The subject of data set [1] is pancreatic cancer MIA PaCa-2 cells. The experiment in a line: cells. As to conditions: for EC50: Homo sapiens, MIA PaCa-2, read-out: EC50, μM MIA PaCa-2. As to the method: Fig 1 A, Structure of NSC130362. B, Dose response curve of NSC130362 in MIA PaCa-2 cells. Cells were pre-incubated with NSC130362 for 2 h followed by addition of ATO (5 μM) and incubation for an additional 24 h. At the end of the treatment, the ratio of dead cells was determined by a CellTiterGlo reagent.

For data set [2], the system named is human primary hepatocytes. The experiment in a line: cells. Conditions: Hepatocyte, read-out: EC50, μM Hepatocytes.
Excerpt: (§1) We selected hepatocytes as normal cells because hepatocytes are mediate toxicity to multiple drugs and are used as a standard to assess toxicity of drugs in vitro [28]. […] For comparison with the standard of care, doxorubicin was also included in this analysis.
Data set [3] concerns human primary hepatocytes.
Excerpt: as §1
For data set [4], the system named is primary acute myeloid leukemia (AML) cells obtained from patients. The experiment in a line: Kinase inhibitor library screening with and without NSC130362, primary AML cells. The format is cell-based, Human. As to conditions: ratio of EC50 for inhibitor to EC50 for inhibitor/NSC130362 combination, NSC130362 10 μM.

On to `CCC(=O)NC1=C(Cl)C(=O)c2ccccc2C1=O` [compound 30], for which the concentration for a half-maximal effect (EC50) worked out at 5.7 µM in data set [1] and 3.6 µM in data set [2].
Turning to `CC(O)CNC1=C(Cl)C(=O)c2ccccc2C1=O` (centres unmarked) [compound 19], the EC50 in data set [1] was 24.9 µM. Besides, in data set [3] (versus compound 17), the “increase in toxicity to hepatocytes” value was “approximately 3 fold”.
As to `CCC(C)NC1=C(Cl)C(=O)c2ccccc2C1=O` (centres unmarked) [compound 11], the EC50 in data set [1] and in data set [2] was over 90 µM throughout.
For the compound `O=C1C(Cl)=C(NC(CO)(CO)CO)C(=O)c2ccccc21` [compound 20], the results for the EC50 in data set [1] and in data set [2] were over 90 µM and 47.8 µM, respectively. In addition, the “loss in anti-cancer activity” value in data set [1] (versus compound 13) was “approximately 50 fold”. For the same compound, the “loss in toxicity to hepatocytes” value in data set [3] (versus compound 13) is reported as “approximately 2 fold”.
On to `COCCCNC1=C(Cl)C(=O)c2ccccc2C1=O` [compound 22], for which the EC50 in data set [1] came out at 39 µM; in data set [2], 90 µM. Besides, the “decrease in anti-cancer activity” value in data set [1] (versus compound 21) is listed as 4 fold. In addition, the “increase in toxicity to hepatocytes” value in data set [3] (versus compound 4) was “approximately 3 fold”.
As for `CCNC1=CC(=O)c2ccccc2C1=O` [compound 49], the concentration for a half-maximal effect (EC50) in data set [1] and in data set [2] was over 90 µM in each case.
`O=C1C(Cl)=C(NCCCO)C(=O)c2ccccc21` [compound 18]: the concentration giving a half-maximal response (EC50) in data set [1] came out at 27.5 µM; in data set [2], 75.3 µM. Also, in data set [3] (versus compound 17), the “increase in toxicity to hepatocytes” value is on record as “approximately 3 fold”.
With `CCCCCCNC1=C(Cl)C(=O)c2ccccc2C1=O` [compound 7], the concentration for a half-maximal effect (EC50) was 26.1 µM in data set [1] and over 90 µM in data set [2].
In the same order, the values of `CC(=O)NC1=C(Cl)C(=O)c2ccccc2C1=O` [compound 29] are 5.4 µM and 9.7 µM.
As to `O=C1C=C(NCCNCCO)C(=O)c2ccccc21` [compound 57], the 50% effective concentration (EC50) was over 90 µM in data set [1] and 83.2 µM in data set [2].
Consider `CCCCCNC1=C(Cl)C(=O)c2ccccc2C1=O` [compound 6], for which the concentration for a half-maximal effect (EC50) in data set [1] and in data set [2] was over 90 µM throughout.
On to `O=C1C(Cl)=C(Nc2ccc(O)cc2)C(=O)c2ccccc21` [compound 45], for which the concentration for a half-maximal effect (EC50) came out at 2.5 µM in data set [1] and 2.6 µM in data set [2].
As to `O=C1C=C(N2CCCCC2)C(=O)c2ccccc21` [compound 58], the results for the 50% effective concentration (EC50) in data set [1] and in data set [2] were 52 µM and 90 µM, respectively.
Take `O=C1C(Cl)=C(NCCCN(CCO)CCO)C(=O)c2ccccc21` [compound 28]: the results for the EC50 in data set [1] and in data set [2] were 9.2 µM and 48.5 µM, respectively. In addition, the “improvement in anti-cancer activity” value in data set [1] (versus compound 4) was 4.6 fold. The “increase in toxicity to hepatocytes” value in data set [3] (versus compound 4) is reported as 3.0 fold.
As for `CCCNC1=CC(=O)c2ccccc2C1=O` [compound 50], the half-maximal effective concentration (EC50) in data set [1] and in data set [2] was over 90 µM in each case.
On to `CC(C)NC1=C(Cl)C(=O)c2ccccc2C1=O` [compound 10], for which the half-maximal effective concentration (EC50) in data set [1] was 69 µM; in data set [2], over 90 µM.
For `NC1=C(Br)C(=O)c2ncccc2C1=O` [compound 65], the EC50 in data set [1] worked out at 1.8 µM; in data set [3] (read-out: EC50, μM Hepatocytes ATO, in the presence of ATO (5 μM), SD does not exceed 10%), 4.1 µM; in data set [2], 8.6 µM.
As to `CCCNC1=C(Cl)C(=O)c2ccccc2C1=O` [compound 4], the EC50 in data set [1] and in data set [2] was 90 µM each time. Also, the “reduction of anti-cancer activity” value in data set [1] (versus compound 3) was “more than 3 fold”.
Regarding `O=C(CCl)NC1=C(Cl)C(=O)c2ccccc2C1=O` [compound 33], the EC50 in data set [1] was found to be 7.9 µM; in data set [2], 25.4 µM. The “decrease in anti-cancer activity” value in data set [1] (versus compound 29) is 2 fold.
On to `CNC1=C(Cl)C(=O)c2ccccc2C1=O` [compound 2], for which the EC50 in data set [1] amounted to 38.6 µM; in data set [2], 41.1 µM.
In the same order, the values of `[N-]=[N+]=NC1=C(Cl)C(=O)c2ccccc2C1=O` [compound 46] are 5.2 µM and 2.9 µM.
Turning to `CC1CCCC(C)N1C1=C(Cl)C(=O)c2ccccc2C1=O` (centres unmarked) [compound 47], the values for the EC50 in data set [1] and in data set [2] were 7 µM and 9 µM, respectively.
`O=C1C(Cl)=C(Nc2ccc(Cl)cc2)C(=O)c2ccccc21` [compound 43]: the EC50 in data set [1] and in data set [2] was over 90 µM throughout.
As for `CCCCNC1=C(Cl)C(=O)c2ccccc2C1=O` [compound 5], the EC50 in data set [1] and in data set [2] was over 90 µM each time.
Turning to `CC(C)CNC1=CC(=O)c2ccccc2C1=O` [compound 52], the half-maximal effective concentration (EC50) in data set [1] and in data set [2] was over 90 µM throughout.
Take `CC(C)CNC1=C(Cl)C(=O)c2ccccc2C1=O` [compound 12]: the EC50 in data set [1] and in data set [2] was over 90 µM throughout.
As to `O=C1C=CC(=O)c2ccccc21` [compound 56, 1,4-NQ, reference compound], the EC50 in data set [1] was determined as 9.2 µM; in data set [2], 1.8 µM.
For `O=C1C(Cl)=C(Nc2ccccn2)C(=O)c2ccccc21` [compound 37], the EC50 in data set [1] worked out at 5.2 µM; in data set [2], 6 µM.
In the same order, the values of `CCOCCNC1=C(Cl)C(=O)c2ccccc2C1=O` [compound 24] are 55.4 µM and 67.8 µM.
In the same order, the values of `CCCCNC1=CC(=O)c2ccccc2C1=O` [compound 51] are over 90 µM and over 90 µM.
For the compound `O=C(O)CNC1=C(Cl)C(=O)c2ccccc2C1=O` [compound 34], the concentration giving a half-maximal response (EC50) was determined as 18.1 µM in data set [1] and 11.8 µM in data set [2].
In the case of `O=C1C(Cl)=C(NNC(=O)C(F)(F)F)C(=O)c2ccccc21` [compound 35], the EC50 came to 8 µM in data set [1] and 11.5 µM in data set [2].
Turning to `Nc1cccc2c1CN(C1CCC(=O)NC1=O)C2=O` (centres unmarked) [Lenalidomide], the “EC50 decrease, fold (Screen N 3)” value in data set [4] is listed as 1.4 fold.
In the case of `N#CCNC(=O)c1ccc(-c2ccnc(Nc3ccc(N4CCOCC4)cc3)n2)cc1` [CYT387], in data set [4], the “EC50 decrease, fold (Screen N 1)” value worked out at 0.117 fold; the “EC50 decrease, fold (Screen N 2)” value was determined as 1.0 fold; the “EC50 decrease, fold (Screen N 3)” value amounted to 320.1 fold.
Turning to `CCN(CC)C1=CC(=O)c2ccccc2C1=O` [compound 59], the EC50 in data set [1] and in data set [2] was 90 µM throughout.
For `Cc1cc(-c2ncc(CC(=O)Nc3ccc(-c4cnccn4)cn3)cc2C)ccn1` [LGK974], the “EC50 decrease, fold (Screen N 2)” value in data set [4] turned out to be 1.0 fold.
With `O=C1C(Cl)=C(Nc2cccc(Cl)c2)C(=O)c2ccccc21` [compound 44], the EC50 in data set [1] was 7 µM; in data set [2], 5.3 µM.
In the same order, the values of `CC(C)OCCCNC1=C(Cl)C(=O)c2ccccc2C1=O` [compound 25] are 82.1 µM and 60.8 µM.
The like results for `O=C1C(Cl)=C(Nc2ccc(F)cc2)C(=O)c2ccccc21` [compound 42] were, in that order, 3.2 µM and 10 µM.
As for `N[C@@H]1CCCN(c2c(Br)cnc3[nH]cc(NC(=O)C4CC4)c23)C1` [GDC-0575], in data set [4], the “EC50 decrease, fold (Screen N 2)” value came out at 1.0 fold.
For `CCCCCNC(=O)N1CCC(CN(Cc2ccc(Cl)cc2)Cc2ccc([N+](=O)[O-])s2)C1` (centres unmarked) [SR9011], in data set [4], the “EC50 decrease, fold (Screen N 3)” value is on record as 82.4 fold.
Turning to `O=C(c1ccc(F)c(F)c1Nc1ccc(I)cc1F)N1CC(O)([C@@H]2CCCCN2)C1` [Combimetinib (GDC-0973)], the “EC50 decrease, fold (Screen N 2)” value in data set [4] is 0.6 fold.
Regarding `Cn1c(=O)n(-c2ccc(C(C)(C)C#N)cc2)c2c3cc(-c4cnc5ccccc5c4)ccc3ncc21` [BEZ235], in data set [4], the “EC50 decrease, fold (Screen N 1)” value worked out at 4.0 fold; the “EC50 decrease, fold (Screen N 2)” value was 0.7 fold; the “EC50 decrease, fold (Screen N 3)” value turned out to be 8.8 fold.
In the same order, the values of `CC(=O)Nc1cccc(-n2c(=O)n(C3CC3)c(=O)c3c(Nc4ccc(I)cc4F)n(C)c(=O)c(C)c32)c1` [Trametinib (GSK1120212)] are 1.4 fold, 398.5 fold and 183.2 fold.
Turning to `COc1cc2/c(=N/c3ccc(Br)cc3F)nc[nH]c2cc1OCC1CCN(C)CC1` [Vandetanib (ZD6474)], in data set [4], the “EC50 decrease, fold (Screen N 1)” value turned out to be 0.5 fold and the “EC50 decrease, fold (Screen N 2)” value is 1.0 fold.
Consider `CC(C)(C)c1ccc(S(=O)(=O)/C=C/C#N)cc1` [Bay 11-7085], for which, in data set [4], the “EC50 decrease, fold (Screen N 1)” value is 69.0 fold; the “EC50 decrease, fold (Screen N 2)” value worked out at 1.0 fold; the “EC50 decrease, fold (Screen N 3)” value stood at 221.9 fold.
Turning to `CCOc1cc2ncc(C#N)c(Nc3ccc(F)c(Cl)c3)c2cc1NC(=O)/C=C/CN(C)C` [Pelitinib (EKB-569)], in data set [4], the “EC50 decrease, fold (Screen N 1)” value turned out to be 1.4 fold; the “EC50 decrease, fold (Screen N 2)” value came out at 0.843 fold; the “EC50 decrease, fold (Screen N 3)” value was determined as 46.0 fold.
As to `CCCCNc1ncc2c(-c3ccc(CN4CCN(C)CC4)cc3)cn(C3CCC(O)CC3)c2n1` (centres unmarked) [UNC 2025A], in data set [4], the “EC50 decrease, fold (Screen N 2)” value was 1.0 fold.
As for `Cc1ccc(NC2=C(Cl)C(=O)c3ccccc3C2=O)cc1` [compound 41], the EC50 in data set [1] turned out to be 2.5 µM; in data set [2] it was 8.4 µM.
In the case of `Oc1ccc([C@H]2COc3cc(O)ccc3C2)cc1` [AUS-131], the “EC50 decrease, fold (Screen N 2)” value in data set [4] is 1.0 fold.
`Oc1cccc(-c2nc(N3CCOCC3)c3oc4ncccc4c3n2)c1` [PI-103]: in data set [4], the “EC50 decrease, fold (Screen N 1)” value is given as 0.452 fold; the “EC50 decrease, fold (Screen N 2)” value is listed as 2.6 fold; the “EC50 decrease, fold (Screen N 3)” value came to 1089.9 fold.
Turning to `O=C(NC1CCNCC1)c1[nH]ncc1NC(=O)c1c(Cl)cccc1Cl` [AT7519], in data set [4], the “EC50 decrease, fold (Screen N 1)” value was determined as 9.7 fold; the “EC50 decrease, fold (Screen N 2)” value turned out to be 2.2 fold; the “EC50 decrease, fold (Screen N 3)” value amounted to 1.1 fold.
As for `CCCCCCCCNC1=C(Cl)C(=O)c2ccccc2C1=O` [compound 9], the concentration for a half-maximal effect (EC50) in data set [1] and in data set [2] was over 90 µM in each case.
